Data on 40 molecules can be found in patent US8686044B2, “Amide derivative, pest control agent containing the amide derivative, and use of the amide derivative” (Mitsui Chemicals Agro, Inc., priority 2008, dated 2014).

The subject of assay [1] is Plutella xylostella. The assay is described as follows: Pesticidal test against Plutella xylostella (cabbage leaf dip). Type of assay: in vivo. As to conditions: foliar, 144 h, 2-stage larvae, examined after 6 days, 25° C., read-out: pesticidal rate; for pest or weed control at 10 ppm: concentration 10 ppm; for pest or weed control at 1 ppm: concentration 1 ppm. On the procedure: (§1) Pesticidal Test against Plutella xylostella A piece of a cabbage leaf was immersed for 30 seconds in a chemical solution in which a test compound had been prepared at a predetermined concentration, and air-dried, and then put into a 7 cm polyethylene cup having a filter paper laid on the bottom thereof, and 2-stage larvae of Plutella xylostella were released. They were left to stand in a thermostatic chamber at 25° C., and the numbers of the living pests and the dead pests were examined after 6 days. The test was carried out with five larvae per group in two replicates. Further, the above compound (A) was used as a comparative compound.

Assay [2] relates to Spodoptera litura. In words: Pesticidal test against Spodoptera litura (cabbage leaf dip). Type of assay: in vivo. As to conditions: foliar, 144 h, 2-stage larvae, examined after 6 days, 25° C., read-out: pesticidal rate; for pest or weed control at 1 ppm: concentration 1 ppm; for pest or weed control at 10 ppm: concentration 10 ppm. How it is done:
as §1, with “Spodoptera litura” for “Plutella xylostella”, “following” for “above”, “(A) disclosed in the pamphlet of International Publication WO 2005/073165” for “(A)”

The structures appear in SMILES notation.

On to `N#Cc1ccc(C(=O)Nc2c(Cl)cc(C(F)(C(F)(F)F)C(F)(F)F)cc2C(F)(F)F)cc1NC(=O)c1ccccc1` [1-470], for which, in assay [1], the pest or weed control at 10 ppm is ≥ 70%. The pest or weed control at 1 ppm in assay [2] is ≥ 70%. As for `N#Cc1ccc(C(=O)Nc2c(Cl)cc(C(F)(C(F)(F)F)C(F)(F)F)cc2C(F)(F)F)cc1NC(=O)c1cccnc1Cl` [1-506], the pest or weed control at 10 ppm in assay [1] and in assay [2] was ≥ 70% throughout.

Take `N#Cc1ccc(C(=O)Nc2c(Cl)cc(C(F)(C(F)(F)F)C(F)(F)F)cc2C(F)(F)F)cc1NC(=O)c1ccc(Cl)nc1` [1-513]: the pest or weed control at 1 ppm in assay [1] and in assay [2] was ≥ 70% in each case. On to `CN(C(=O)c1ccc(Cl)nc1)c1cc(C(=O)Nc2c(Cl)cc(C(F)(C(F)(F)F)C(F)(F)F)cc2C(F)(F)F)ccc1C#N` [2-513], for which the pest or weed control at 1 ppm in assay [1] is ≥ 70%. Moreover, in assay [2], the pest or weed control at 10 ppm is ≥ 70%. As for `CN(C(=O)c1ccc(C#N)nc1)c1cc(C(=O)Nc2c(Cl)cc(C(F)(C(F)(F)F)C(F)(F)F)cc2C(F)(F)F)ccc1C#N` [2-518], the pest or weed control at 10 ppm in assay [1] and in assay [2] was ≥ 70% each time. `O=C(Nc1cccc(C(=O)Nc2c(Br)cc(C(F)(C(F)(F)F)C(F)(F)C(F)(F)F)cc2Br)c1)c1ccccc1` (stereo not shown) [6-38]: the pest or weed control at 1 ppm in assay [1] and in assay [2] was ≥ 70% in each case. Regarding `N#Cc1ccc(C(=O)Nc2cccc(C(=O)Nc3c(Br)cc(C(F)(C(F)(F)F)C(F)(F)C(F)(F)F)cc3Br)c2)cc1` (stereo not shown) [6-46], the pest or weed control at 1 ppm in assay [1] and in assay [2] was ≥ 70% each time. For `O=C(Nc1cccc(C(=O)Nc2c(Br)cc(C(F)(C(F)(F)F)C(F)(F)C(F)(F)F)cc2Br)c1)c1ccc(Cl)nc1` (stereo not shown) [6-60], the pest or weed control at 10 ppm in assay [1] is ≥ 70%. The pest or weed control at 1 ppm in assay [2] is ≥ 70%. With `N#Cc1cccc(C(=O)Nc2cccc(C(=O)Nc3c(I)cc(C(F)(C(F)(F)F)C(F)(F)C(F)(F)F)cc3I)c2)c1` (stereo not shown) [6-78], the pest or weed control at 1 ppm in assay [1] and in assay [2] was ≥ 70% each time. As for `O=C(Nc1cccc(C(=O)Nc2c(I)cc(C(F)(C(F)(F)F)C(F)(F)C(F)(F)F)cc2I)c1)c1ccc(Cl)nc1` (stereo not shown) [6-93], the pest or weed control at 10 ppm in assay [1] is ≥ 70%. In addition, the pest or weed control at 1 ppm in assay [2] is ≥ 70%. In the case of `O=C(Nc1cccc(C(=O)Nc2c(Cl)cc(C(F)(C(F)(F)F)C(F)(F)F)cc2C(F)(F)F)c1)c1ccccc1` [6-111], the pest or weed control at 1 ppm in assay [1] and in assay [2] was ≥ 70% in each case. Consider `N#Cc1cccc(C(=O)Nc2cccc(C(=O)Nc3c(Br)cc(C(F)(C(F)(F)F)C(F)(F)F)cc3C(F)(F)F)c2)c1` [6-288], for which the pest or weed control at 1 ppm in assay [1] and in assay [2] was ≥ 70% in each case.

As to `N#Cc1ccc(C(=O)Nc2cccc(C(=O)Nc3c(Br)cc(C(F)(C(F)(F)F)C(F)(F)F)cc3C(F)(F)F)c2)cc1` [6-289], the pest or weed control at 1 ppm in assay [1] and in assay [2] was ≥ 70% in each case.

As to `N#Cc1ccc(C(=O)Nc2cccc(C(=O)Nc3c(Br)cc(C(F)(C(F)(F)F)C(F)(F)F)cc3C(F)(F)F)c2)c(F)c1` [6-300], the pest or weed control at 1 ppm in assay [1] and in assay [2] was ≥ 70% each time.

In the case of `O=C(Nc1cccc(C(=O)Nc2c(I)cc(C(F)(C(F)(F)F)C(F)(F)F)cc2C(F)(F)F)c1)c1ccccc1` [6-424], the pest or weed control at 1 ppm in assay [1] and in assay [2] was ≥ 70% throughout. Regarding `O=C(Nc1c(I)cc(C(F)(C(F)(F)F)C(F)(F)F)cc1C(F)(F)F)c1cccc(NC(=O)c2ccc(Cl)cc2Cl)c1` [6-448], the pest or weed control at 10 ppm in assay [1] was ≥ 70%. Besides, the pest or weed control at 1 ppm in assay [2] is ≥ 70%.

Take `O=C(Nc1c(I)cc(C(F)(C(F)(F)F)C(F)(F)F)cc1C(F)(F)F)c1cccc(NC(=O)c2ccc([N+](=O)[O-])cc2Cl)c1` [6-454]: the pest or weed control at 10 ppm in assay [1] and in assay [2] was ≥ 70% in each case. As to `O=C(Nc1cccc(C(=O)Nc2c(I)cc(C(F)(C(F)(F)F)C(F)(F)F)cc2C(F)(F)F)c1)c1ccc(Cl)nc1` [6-467], the pest or weed control at 1 ppm in assay [1] and in assay [2] was ≥ 70% each time. Regarding `O=C(Nc1cccc(C(=O)Nc2c(I)cc(C(F)(C(F)(F)F)C(F)(F)C(F)(F)F)cc2C(F)(F)F)c1)c1ccccc1` (stereo not shown) [6-502], the pest or weed control at 1 ppm in assay [1] and in assay [2] was ≥ 70% throughout. With `O=C(Nc1cccc(C(=O)Nc2c(I)cc(C(F)(C(F)(F)F)C(F)(F)C(F)(F)F)cc2C(F)(F)F)c1)c1ccc(Cl)nc1` (stereo not shown) [6-545], the pest or weed control at 1 ppm in assay [1] and in assay [2] was ≥ 70% each time. Take `O=C(Nc1cccc(C(=O)Nc2c(C(F)(F)F)cc(C(F)(C(F)(F)F)C(F)(F)F)cc2C(F)(F)F)c1)c1ccccc1` [6-804]: the pest or weed control at 1 ppm in assay [1] and in assay [2] was ≥ 70% each time. In the case of `N#Cc1cccc(C(=O)Nc2cccc(C(=O)Nc3c(C(F)(F)F)cc(C(F)(C(F)(F)F)C(F)(F)F)cc3C(F)(F)F)c2)c1` [6-824], the pest or weed control at 1 ppm in assay [1] and in assay [2] was ≥ 70% in each case. For the molecule `N#Cc1ccc(C(=O)Nc2cccc(C(=O)Nc3c(C(F)(F)F)cc(C(F)(C(F)(F)F)C(F)(F)F)cc3C(F)(F)F)c2)cc1` [6-825], the pest or weed control at 1 ppm in assay [1] and in assay [2] was ≥ 70% each time.

As for `O=C(Nc1c(C(F)(F)F)cc(C(F)(C(F)(F)F)C(F)(F)F)cc1C(F)(F)F)c1cccc(NC(=O)c2cccnc2Cl)c1` [6-840], the pest or weed control at 1 ppm in assay [1] and in assay [2] was ≥ 70% in each case.

On to `O=C(Nc1cccc(C(=O)Nc2c(I)cc(C(F)(C(F)(F)F)C(F)(F)F)cc2C(F)(F)F)c1F)c1ccc(F)cc1Cl` [6-1755], for which the pest or weed control at 1 ppm in assay [1] and in assay [2] was ≥ 70% each time. Turning to `O=C(Nc1cccc(C(=O)Nc2c(Cl)cc(C(F)(C(F)(F)F)C(F)(F)F)cc2Br)c1F)c1ccccc1` [6-5902], the pest or weed control at 1 ppm in assay [2] was ≥ 70%. For `CS(=O)(=O)c1ccc(C(=O)Nc2cccc(C(=O)Nc3c(I)cc(C(F)(C(F)(F)F)C(F)(F)F)cc3C(F)(F)F)c2)c(Cl)c1` [6-5912], the pest or weed control at 1 ppm in assay [1] and in assay [2] was ≥ 70% each time. In the case of `O=C(Nc1cccc(C(=O)Nc2c(Br)cc(C(F)(F)C(F)(F)F)cc2C(F)(F)F)c1)c1ccccc1` [6-5913, 3-benzamide-N-(2-bromo-4-(perfluoroethyl)-6-(trifluoromethyl)phenyl)benzamide], the pest or weed control at 10 ppm in assay [1] and in assay [2] was ≥ 70% in each case. On to `CN(C(=O)c1ccccc1)c1cccc(C(=O)Nc2c(Br)cc(C(F)(C(F)(F)F)C(F)(F)C(F)(F)F)cc2Br)c1` (stereo not shown) [7-38], for which the pest or weed control at 1 ppm in assay [1] and in assay [2] was ≥ 70% in each case. For the molecule `CN(C(=O)c1cccc(C#N)c1)c1cccc(C(=O)Nc2c(Br)cc(C(F)(C(F)(F)F)C(F)(F)C(F)(F)F)cc2Br)c1` (stereo not shown) [7-45], the pest or weed control at 1 ppm in assay [1] and in assay [2] was ≥ 70% each time. For the molecule `CN(C(=O)c1ccc(C#N)cc1)c1cccc(C(=O)Nc2c(Br)cc(C(F)(C(F)(F)F)C(F)(F)C(F)(F)F)cc2Br)c1` (stereo not shown) [7-46], the pest or weed control at 1 ppm in assay [1] and in assay [2] was ≥ 70% in each case. With `CN(C(=O)c1ccc(Cl)nc1)c1cccc(C(=O)Nc2c(Br)cc(C(F)(C(F)(F)F)C(F)(F)C(F)(F)F)cc2Br)c1` (stereo not shown) [7-60], the pest or weed control at 1 ppm in assay [1] and in assay [2] was ≥ 70% throughout. With `CN(C(=O)c1ccccc1)c1cccc(C(=O)Nc2c(I)cc(C(F)(C(F)(F)F)C(F)(F)C(F)(F)F)cc2I)c1` (stereo not shown) [7-71], the pest or weed control at 1 ppm in assay [1] and in assay [2] was ≥ 70% in each case. In the case of `CN(C(=O)c1ccccc1F)c1cccc(C(=O)Nc2c(I)cc(C(F)(C(F)(F)F)C(F)(F)C(F)(F)F)cc2I)c1` (stereo not shown) [7-72], the pest or weed control at 1 ppm in assay [1] and in assay [2] was ≥ 70% in each case. In the case of `CN(C(=O)c1cccc(C#N)c1)c1cccc(C(=O)Nc2c(I)cc(C(F)(C(F)(F)F)C(F)(F)C(F)(F)F)cc2I)c1` (stereo not shown) [7-78], the pest or weed control at 1 ppm in assay [1] and in assay [2] was ≥ 70% throughout.

With `CN(C(=O)c1ccc(C#N)cc1)c1cccc(C(=O)Nc2c(I)cc(C(F)(C(F)(F)F)C(F)(F)C(F)(F)F)cc2I)c1` (stereo not shown) [7-79], the pest or weed control at 1 ppm in assay [1] and in assay [2] was ≥ 70% throughout.

As to `CN(C(=O)c1c(F)cccc1F)c1cccc(C(=O)Nc2c(I)cc(C(F)(C(F)(F)F)C(F)(F)C(F)(F)F)cc2I)c1` (stereo not shown) [7-80], the pest or weed control at 1 ppm in assay [1] and in assay [2] was ≥ 70% each time.

With `CN(C(=O)c1ccc(Cl)nc1)c1cccc(C(=O)Nc2c(I)cc(C(F)(C(F)(F)F)C(F)(F)C(F)(F)F)cc2I)c1` (stereo not shown) [7-93], the pest or weed control at 1 ppm in assay [1] and in assay [2] was ≥ 70% in each case. Regarding `CN(C(=O)c1ccc(C#N)cc1)c1cccc(C(=O)Nc2c(Cl)cc(C(F)(C(F)(F)F)C(F)(F)F)cc2C(F)(F)F)c1` [7-132], the pest or weed control at 1 ppm in assay [1] and in assay [2] was ≥ 70% throughout. Regarding `CN(C(=O)c1cccnc1Cl)c1cccc(C(=O)Nc2c(Cl)cc(C(F)(C(F)(F)F)C(F)(F)F)cc2C(F)(F)F)c1` [7-147], the pest or weed control at 1 ppm in assay [1] and in assay [2] was ≥ 70% in each case.
